In patent US6465482B2, “Arylpiperazinyl-cyclohexyl indole derivatives for the treatment of depression” (Wyeth, priority 1999, dated 2002):
Where a name gives a salt, the structure may show the parent alone.

melting point | SMILES
283 to 285 °C | Fc1cccc2[nH]cc([C@H]3CC[C@@H](N4CCN(c5cccc6[nH]ccc56)CC4)CC3)c12 (as salt: HCl) (hydrate or solvate) [Example 2a, 4-Fluoro-3-[cis-4-[4-(1H-indol-4-yl)-1-piperazinyl]cyclohexyl]-1H-indole]
283 to 285 °C | Clc1ccc2[nH]cc([C@H]3CC[C@@H](N4CCN(c5cccc6[nH]ccc56)CC4)CC3)c2c1 (as salt: HCl) (hydrate or solvate) [Example 6a, 5-Chloro-3-[cis-4-[4-(1H-indol-4-yl)-1-piperazinyl]cyclohexyl]-1H-indole]
283 to 285 °C | COc1ccc2[nH]cc([C@H]3CC[C@@H](N4CCN(c5cccc6[nH]ccc56)CC4)CC3)c2c1 (as salt: HCl) (hydrate or solvate) [Example 8a, 5-Methoxy-3-[cis-4-[4-(1H-indol-4-yl)-1-piperazinyl]cyclohexyl]-1H-indole]
285.5 to 288 °C | Cn1cc([C@H]2CC[C@@H](N3CCN(c4cccc5[nH]ccc45)CC3)CC2)c2cc(C#N)ccc21 (as salt: HCl) (hydrate or solvate) [Example 12a, 3-{(1,4-cis)-4-[4-(1H-indol-4-yl)-piperazin-1-yl]-cyclohexyl}-1-methyl-1H-indole-5-carbonitrile]
286 to 288 °C | Cn1cc([C@H]2CC[C@H](N3CCN(c4cccc5[nH]ccc45)CC3)CC2)c2cc(C#N)ccc21 (as salt: HCl) (hydrate or solvate) [Example 12b, 3-{(1,4-trans)-4-[4-(1H-indol-4-yl)-piperazin-1-yl]-cyclohexyl}-1-methyl-1H-indole-5-carbonitrile]
305 °C (dec.) | c1cc(N2CCN([C@H]3CC[C@H](c4c[nH]c5ccccc54)CC3)CC2)c2cc[nH]c2c1 (as salt: HCl) [Example 1b, 3-[trans-4-[4-(1H-Indol-4-yl)-1-piperazinyl]cyclohexyl]-1H-indole]
280 °C (dec.) | Fc1ccc2[nH]cc([C@H]3CC[C@H](N4CCN(c5cccc6[nH]ccc56)CC4)CC3)c2c1 (as salt: HCl) [Example 3b, 5-Fluoro-3-[trans-4-[4-(1H-indol-4-yl)-1-piperazinyl]cyclohexyl]-1H-indole]
319 to 320 °C (dec.) | Fc1ccc2c(c1)[nH]cc2[C@H]1CC[C@H](N2CCN(c3cccc4[nH]ccc34)CC2)CC1 (as salt: HCl) [Example 4b, 6-Fluoro-3-[trans-4-[4-(1H-indol-4-yl)-1-piperazinyl]cyclohexyl]-1H-indole]
276 °C | Brc1ccc2[nH]cc([C@H]3CC[C@@H](N4CCN(c5cccc6[nH]ccc56)CC4)CC3)c2c1 (as salt: HCl) [Example 5a, 5-Bromo-3-[cis-4-[4-(1H-indol-4-yl)-1-piperazinyl]cyclohexyl]-1H-indole]
> 300 °C | Brc1ccc2[nH]cc([C@H]3CC[C@H](N4CCN(c5cccc6[nH]ccc56)CC4)CC3)c2c1 (as salt: HCl) [Example 5b, 5-Bromo-3-[trans-4-[4-(1H-indol-4-yl)-1-piperazinyl]cyclohexyl]-1H-indole]

Further lines, the compound ahead of its results:

SMILES | melting point
Clc1ccc2[nH]cc([C@H]3CC[C@H](N4CCN(c5cccc6[nH]ccc56)CC4)CC3)c2c1 (as salt: HCl) (hydrate or solvate) [Example 6b, 5-Chloro-3-[trans-4-[4-(1H-indol-4-yl)-1-piperazinyl]cyclohexyl]-1H-indole] | 314 to 315.5 °C
COc1ccc2[nH]cc([C@H]3CC[C@H](N4CCN(c5cccc6[nH]ccc56)CC4)CC3)c2c1 (as salt: HCl) (hydrate or solvate) [Example 8b, 5-Methoxy-3-[trans-4-[4-(1H-indol-4-yl)-1-piperazinyl]cyclohexyl]-1H-indole] | 194 to 196 °C
Cn1ccc2c(N3CCN([C@H]4CC[C@@H](c5cn(C)c6cc(F)ccc65)CC4)CC3)cccc21 (as salt: HCl) (hydrate or solvate) [Example 11, 6-Fluoro-1-methyl-3-{cis-4-[4-(1-methyl-1H-indol-4-yl)-1-piperazinyl]cyclohexyl}-1H-indole] | 253 to 254 °C
CCn1cc([C@H]2CC[C@@H](N3CCN(c4cccc5[nH]ccc45)CC3)CC2)c2cc(C#N)ccc21 (as salt: HCl) (hydrate or solvate) [Example 13a, 1-Ethyl-3-{(1,4-cis)-4-[4-(1H-indol-4-yl)-piperazin-1-yl]-cyclohexyl}-1H-indole-5-carbonitrile] | 245 °C
CCCn1cc([C@H]2CC[C@@H](N3CCN(c4cccc5[nH]ccc45)CC3)CC2)c2cc(C#N)ccc21 (as salt: HCl) (hydrate or solvate) [Example 14a, 3-{(1,4-cis)-4-[4-(1H-Indol-4-yl)-piperazin-1-yl]-cyclohexyl}-1-propyl-1H-indole-5-carbonitrile] | 200 to 206 °C
CC(C)n1cc([C@H]2CC[C@@H](N3CCN(c4cccc5[nH]ccc45)CC3)CC2)c2cc(C#N)ccc21 (as salt: HCl) (hydrate or solvate) [Example 15a, 3-{(1,4-cis)-4-[4-(1H-indol-4-yl)-piperazin-1-yl]-cyclohexyl}-1-isopropyl-1H-indole-5-carbonitrile] | 285 to 286 °C
Cn1cc([C@H]2CC[C@@H](N3CCN(c4cccc5cccnc45)CC3)CC2)c2cc(F)ccc21 (as salt: HCl) (hydrate or solvate) [Example 28, 8-{4-(1,4-cis)-4-[4-(5-Fluoro-1-methyl-1H-indol-3-yl)-cyclohexyl]-piperazin-1-yl}-quinoline] | 261 to 263.5 °C
Fc1cc2c(c(N3CCN([C@H]4CC[C@H](c5c[nH]c6ccc(F)cc65)CC4)CC3)c1)OCCC2 (as salt: HCl) (hydrate or solvate) [Example 31b, 5-Fluoro-3-{(1,4-trans)-4-[4-(6-fluoro-chroman-8-yl)-piperazin-1-yl]-cyclohexyl}-1H-indole] | 286 to 288 °C
Fc1cc2c(c(N3CCN([C@H]4CC[C@@H](c5c[nH]c6ccc(F)cc65)CC4)CC3)c1)OCC2 (as salt: HCl) (hydrate or solvate) [Example 32a, 5-Fluoro-3-{(1,4-cis)-4-[4-(5-fluoro-2,3-dihydro-benzofuran-7-yl)-piperazin-1-yl]-cyclohexyl}-1H-indole] | 196 to 198 °C
Fc1cc2c(c(N3CCN([C@H]4CC[C@H](c5c[nH]c6ccc(F)cc65)CC4)CC3)c1)OCC2 (as salt: HCl) (hydrate or solvate) [Example 32b, 5-Fluoro-3-{(1,4-trans)-4-[4-(5-fluoro-2,3-dihydro-benzofuran-7-yl)-piperazin-1-yl]-cyclohexyl}-1H-indole] | 303 to 305 °C
N#Cc1ccc2[nH]cc([C@H]3CC[C@@H](N4CCN(c5cc(F)cc6c5OCC6)CC4)CC3)c2c1 (as salt: HCl) (hydrate or solvate) [Example 33a, 3-{(1,4-cis)-4-[4-(5-Fluoro-2,3-dihydro-benzofuran-7-yl)-piperazin-1-yl]-cyclohexyl}-1H-indole-5-carbonitrile] | 298 to 301 °C
N#Cc1ccc2[nH]cc([C@H]3CC[C@H](N4CCN(c5cc(F)cc6c5OCC6)CC4)CC3)c2c1 (as salt: HCl) (hydrate or solvate) [Example 33b, 3-{(1,4-trans)-4-[4-(5-Fluoro-2,3-dihydro-benzofuran-7-yl)-piperazin-1-yl]-cyclohexyl}-1H-indole-5-carbonitrile] | 330 to 331 °C
N#Cc1ccc2[nH]cc([C@H]3CC[C@@H](N4CCN(c5cccc6ccoc56)CC4)CC3)c2c1 (as salt: HCl) (hydrate or solvate) [Example 34a] | 295 to 296 °C
N#Cc1ccc2[nH]cc([C@H]3CC[C@H](N4CCN(c5cccc6ccoc56)CC4)CC3)c2c1 (as salt: HCl) (hydrate or solvate) [Example 34b] | 330 to 331 °C
c1cc(N2CCN([C@H]3CC[C@@H](c4c[nH]c5ccccc54)CC3)CC2)c2cc[nH]c2c1 (as salt: HCl) [Example 1a, 3-[cis-4-[4-(1H-Indol-4-yl)-1-piperazinyl]cyclohexyl]-1H-indole] | 198 to 200 °C
Fc1ccc2[nH]cc([C@H]3CC[C@@H](N4CCN(c5cccc6[nH]ccc56)CC4)CC3)c2c1 (as salt: HCl) [Example 3a, 5-Fluoro-3-[cis-4-[4-(1H-indol-4-yl)-1-piperazinyl]cyclohexyl]-1H-indole] | 215 to 217 °C
Fc1ccc2c(c1)[nH]cc2[C@H]1CC[C@@H](N2CCN(c3cccc4[nH]ccc34)CC2)CC1 (as salt: HCl) [Example 4a, 6-Fluoro-3-[cis-4-[4-(1H-indol-4-yl)-1-piperazinyl]cyclohexyl]-1H-indole] | 250 to 252 °C (dec.)
N#Cc1ccc2[nH]cc([C@H]3CC[C@@H](N4CCN(c5cccc6[nH]ccc56)CC4)CC3)c2c1 (as salt: HCl) [Example 7a, 3-{4-[(1,4-cis)-4-(1H-Indol-4-yl)-piperazinyl-1-yl]cyclohexyl}-1H-indole-5-carbonitrile] | 216 to 218 °C
N#Cc1ccc2[nH]cc([C@H]3CC[C@H](N4CCN(c5cccc6[nH]ccc56)CC4)CC3)c2c1 (as salt: HCl) [Example 7b, 3-{4-[(1,4-trans)-4-(1H-Indol-4-yl)-piperazinyl-1-yl]cyclohexyl}-1H-indole-5-carbonitrile] | > 310 °C
Cc1[nH]c2ccccc2c1[C@H]1CC[C@H](N2CCN(c3cccc4[nH]ccc34)CC2)CC1 (as salt: HCl) [Example 9b, 3-[trans-4-[4-(1H-Indol-4-yl)-1-piperazinyl]cyclohexyl]-2-methyl-1H-indole] | > 310 °C
c1cc(N2CCN([C@H]3CC[C@@H](c4c[nH]c5ncccc54)CC3)CC2)c2cc[nH]c2c1 (as salt: HCl) [Example 10a, 3-{(1,4-cis)-4-[4-(1H-Indole-4-yl)-piperazin-1-yl]-cyclohexyl}-1H-pyrrolo[2,3-b]pyridine] | > 250 °C (dec.)
c1cc(N2CCN([C@H]3CC[C@H](c4c[nH]c5ncccc54)CC3)CC2)c2cc[nH]c2c1 (as salt: HCl) [Example 10b, 3-{(1,4-trans)-4-[4-(1H-Indole-4-yl)-piperazin-1-yl]-cyclohexyl}-1H-pyrrolo[2,3-b]pyridine] | > 250 °C (dec.)
